Source: the supplement of paper PMC10290057
Where “and” joins values, the source holds several entries; their conditions need not be identical. Identical values can stand only once. Counter-ions that a name gives are not always drawn.

Test system: HCT116
Assay: efficacy (fitted maximal change in viability relative to DMSO control); higher = less cytotoxic (negative = loss of viability)
Conditions: 48 h
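Note: Luminescence-based viability readout, five doses per compound, normalized against on-plate DMSO and empty-well controls, followed by dose-response curve fitting for every drug.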

## CNc1nc(Nc2ccc(C(=O)N3CCOCC3)cc2OC)ncc1Cl [Hg-10-102-01]
  efficacy: -12.2%

## C/C1=C2/[N]3[Co+]456([OH])<-[N]7=C1[C@@H](CCC(N)=O)C(C)(C)/C7=C/C1=[N]->4C(=C(/C)C4=[N]->5[C@@](C)([C@H]3[C@H](CC(N)=O)[C@@]2(C)CCC(=O)NC[C@@H](C)OP(=O)([O-])O[C@H]2[C@@H](O)[C@@H](n3c[n]->6c5cc(C)c(C)cc53)O[C@@H]2CO)[C@@](C)(CC(N)=O)[C@@H]4CCC(N)=O)/[C@@](C)(CC(N)=O)[C@@H]1CCC(N)=O [Hydroxocobalamin]
  efficacy: -39.6%

## CCN1\C=C(C(O)=O)/C(=O)C2=C1C=C(N3CCN(C)CC3)C(=C2)F [Pefloxacin]
  efficacy: 5.51%

## CCN(C(=O)c1ccccc1OC)c1cc2c(cc1N1CCNC[C@H]1C)n(C)c(=O)n2C [GSK9311]
  efficacy: -8.64%

## CCCC[C@@H](C=O)NC(=O)[C@H](CC(C)C)NC(=O)OCc1ccccc1 [Calpeptin]
  efficacy: -29.4%

## O=C(O)C(=O)c1cn(Cc2ccccc2)c2ccc(-c3ccc(OC(F)(F)F)cc3)cc12 [Tiplasinin]
  efficacy: -22.4%

## CC(C(=O)O)c1ccc2c(c1)CC(=O)c1ccccc1S2 (configuration not stated) [Zaltoprofen]
  efficacy: 8.02%

## c1cc(-c2sc(-c3ccncc3)c(-c3ccncc3)c2-c2ccncc2)ccn1
  efficacy: -13.8%

## N#Cc1c(N(CC(=O)[O-])CC(=O)[O-])sc(C(=O)[O-])c1CC(=O)[O-] [Strontium Ranelate]
  efficacy: -15.5%

## CC(C)C(N)C(=O)OCC(CO)OC[N]1C=NC2=C1N\C(=N/C2=O)N (configuration not stated) [Cymeval]
  efficacy: -19.5%

## Fc1cccc(-n2cnc3c(NCc4nc5ccc(F)c(F)c5[nH]4)nc(N4CCOCC4)nc32)c1 [SR-3029]
  efficacy: -53.1%

## CCCNC(=O)Nc1ccc(Oc2ncnc3cc(OC)c(OC)cc23)cc1Cl [KRN-633]
  efficacy: -12.8%

## Fc1ccc(Cl)cc1-c1nc(Nc2ccncc2)c2nccnc2n1 [SD-208]
  efficacy: -22.5%

## CC(C)[C@H](O)C(=O)N[C@@H](C)C(=O)N[C@@H]1C(=O)N(C)CCc2ccccc21 [Semagacestat]
  efficacy: -9.53%

## Clc1ccc(Nc2nnc(Cc3ccncc3)c3ccccc23)cc1 [Vatalanib]
  efficacy: -27.3%

## Cn1c(=O)c2[nH]cnc2n(C)c1=O [Theophyllamine]
  efficacy: -11.6%

## CCN(CC)CCN1C(=O)\C(=N/C2=CC=CC=C12)CC3=CC=C(OC)C=C3 [Caroverine]
  efficacy: -15.9%

## CCc1ccc(/C=C2/SC(=S)NC2=O)cc1
  efficacy: -29%

## NC[C@H]1O[C@H](O[C@H]2[C@H](O)[C@@H](O[C@H]3O[C@H](CO)[C@@H](O)[C@H](N)[C@H]3O)[C@H](N)C[C@@H]2N)[C@H](N)C[C@@H]1O [Tobramycin]
  efficacy: -8.81%

## Nc1ncnc2c1nc(Cl)n2[C@@H]1O[C@H](CO)[C@@H](O)[C@H]1O [8-Cl-Ado]
  efficacy: -73.3%

## CN(C)CCCN1c2ccccc2CCc2ccc(Cl)cc21 [Clomipramine hydrochloride]
  efficacy: -84.3%

## Cc1ccc(-c2ncc(Cl)cc2-c2ccc([S+](C)(=O)[O-])cc2)cn1 [Etoricoxib]
  efficacy: -16.9%

## C=CC(=O)N1CC(N2CCN(C(=O)CNc3cc(C4(C)CC4)c(Cl)cc3O)CC2)C1 [ARS-853]
  efficacy: -63.4%

## Cc1ccc(C)c(OCCCC(C)(C)C(=O)O)c1 [Gemfibrozil]
  efficacy: -13.1%

## O=C1Nc2ccc(Cl)cc2[C@@](C#CC2CC2)(C(F)(F)F)O1 [Efavirenz]
  efficacy: -85.4%

## CCOC(=O)[C@@H](N)CCC(=O)N[C@@H](CSCc1ccccc1)C(=O)N[C@@H](C(=O)OCC)c1ccccc1 [Ezatiostat]
  efficacy: -18.5%

## CN[C@@H](C)C(=O)N[C@H](C(=O)N1CCC[C@H]1C(=O)Nc1sc(-c2ncco2)nc1-c1ccccc1)C1CCCCC1 [CUDC-427]
  efficacy: -17%

## CN(C)C(=O)c1cc2cnc(Nc3ccc(N4CCNCC4)cn3)nc2n1C1CCCC1 [Ribociclib (LEE011)]
  efficacy: -12.5%

## COC(=O)[C@@H]1CC/2=C/C(=O)CC[C@]2(C)[C@@]34O[C@@H]3C[C@@]5(C)[C@@H](CC[C@@]56CCC(=O)O6)[C@H]14 [Eplerenone]
  efficacy: -6.15%

## O=C(O)[C@@H](c1ccc(OCc2ccc3ccccc3n2)cc1)C1CCCC1 [Veliflapon]
  efficacy: -10.1%

## O=C(CCc1ccc(O)cc1)c1c(O)cc(O)cc1O[C@@H]1O[C@H](CO)[C@@H](O)[C@H](O)[C@H]1O [Phlorizin]
  efficacy: -28.6%

## Cc1c(OCC(F)(F)F)ccnc1C[S+]([O-])c1nc2ccccc2[nH]1 (configuration not stated) [Lansoprazole]
  efficacy: -18.3%

## C=C1/C(=C\C=C2/CCC[C@]3(C)[C@@H]([C@H](C)CCCC(C)(C)O)CC[C@@H]23)C[C@@H](O)C[C@@H]1O [Calcitriol]
  efficacy: -65% and -62.8%

## CC(C)(F)C[C@H](N[C@@H](c1ccc(-c2ccc([S+](C)(=O)[O-])cc2)cc1)C(F)(F)F)C(=O)NC1(C#N)CC1 [Odanacatib]
  efficacy: -28.3%

## COc1ccc(C2CNC(=O)C2)cc1OC1CCCC1 (configuration not stated) [Rolipram]
  efficacy: -7.4%

## O=C(O)CCCCCC(=O)NN=C1CCCC1 [IDE-2]
  efficacy: -8.18%

## O=NN(CCCl)C(=O)NCCCl [Carmustine]
  efficacy: -15.1%

## CCOC(=O)c1c(C)n(C)c2ccc(O)cc12 [Mecarbinate]
  efficacy: -21.6%

## CC[C@H]1OC(=O)[C@H](C)[C@@H](O[C@H]2C[C@@](C)(OC)[C@@H](O)[C@H](C)O2)[C@H](C)[C@@H](O[C@@H]2O[C@H](C)C[C@H](N(C)C)[C@H]2O)[C@](C)(O)C[C@@H](C)CN(C)[C@H](C)[C@@H](O)[C@]1(C)O [Azithromycin]
  efficacy: -20.7%

## Cc1ccc([S+](=O)([O-])OCC(=O)Nc2ccc(C(=O)O)c(O)c2)cc1 [S31-201]
  efficacy: -5.21%

## COc1ccccc1OCC(O)CN1CCN(CC(=O)Nc2c(C)cccc2C)CC1 (configuration not stated) [Ranolazine]
  efficacy: -11.9%

## CN(C(=O)c1ccc(F)cc1C(F)(F)F)C1CCN(c2nnc(-c3ccnn3C)c3ccccc23)CC1 [Taladegib]
  efficacy: -25.6%

## C[C@H]1C[C@@H]2[C@H](CC[C@@]3(C)[C@H]2CC[C@]3(OC(C)=O)C(C)=O)[C@@]\4(C)CCC(=O)\C=C14 [Medroxyprogesterone acetate]
  efficacy: -13.3%

## Cc1ncc(Cl)cc1NCc1ccc(C(=O)NC(CC2CCCC2)C(=O)NC2CC2)s1 (configuration not stated)
  efficacy: -78.2%

## CC(C)N(CCCNC(=O)Nc1ccc(C(C)(C)C)cc1)C[C@H]1O[C@@H](n2ccc3c(N)ncnc32)[C@H](O)[C@@H]1O
  efficacy: -31.1%

## Clc1cccc(-c2ccc(-c3nnc(CCCc4ccc5cccnc5n4)o3)cc2)c1 [PRP003-073]
  efficacy: -17.9%

## CC1=CC=C(C=C1)\C2=N\C3=CC=C(Cl)C=C3OC2 [AR-7]
  efficacy: -31.7%

## Cc1noc(-c2ccc(-c3ccc(C4(C(=O)O)CC4)cc3)cc2)c1NC(=O)O[C@H](C)c1ccccc1
  efficacy: -40.6%

## CC1(C)S[C@H]2[C@H](NC(=O)[C@@H](N)c3ccc(O)cc3)C(=O)N2[C@H]1C(=O)O [Amoxicillin sodium]
  efficacy: 6.82%

## CCCCc1ccc(N[S+](=O)([O-])c2ccc(C)c(C(=O)N3CCN(c4cccc(C)c4C)CC3)c2)cc1 [IDH-001]
  efficacy: -48.4%

## CCC1=C(C)CN(C(=O)NCCc2ccc(S(=O)(=O)NC(=O)N[C@H]3CC[C@H](C)CC3)cc2)C1=O [Glimepiride]
  efficacy: -14.8%

## O=C(NC[C@H](O)CN1CCc2ccccc2C1)c1ccnc(NC2CCC2)c1
  efficacy: -5.9%

## CC(C)OC(=O)/C1=C/N(CC(C)(C)C2=C1[NH]C3=CC=CC=C23)C(=O)C4=CC=C(F)C(=C4)F [Turofexorate isopropyl]
  efficacy: -17.9%

## NC(=O)c1ccc(I)c([N+](=O)[O-])c1 [Iniparib]
  efficacy: -14.6%

## CN1C(=O)/C(=C(NC2=CC=C(I)C=C2F)\C3=C1\N=C/N(C[C@@H](O)CO)C3=O)F [TAK-733]
  efficacy: -73.1%

## COc1ccc(C(=O)N2CCN(c3ccc4c(c3)CCC(=O)N4)CC2)cc1OC [Vesnarinone]
  efficacy: -21.4%

## O=C1N(c2ccccc2)c2ccccc2C1(Cc1ccncc1)Cc1ccncc1 [Linopirdine]
  efficacy: -12.1%

## CC(=O)[C@H]1CC[C@H]2[C@@H]3C/C=C4/C[C@@H](O)CC[C@]4(C)[C@H]3CC[C@]12C [Pregnenolone]
  efficacy: -6.65%

## CC(C[N+](C)(C)C)OC(N)=O (configuration not stated) [Bethanechol chloride]
  efficacy: -25.8%

## CNC(=O)c1ccc(N2C(=S)N(c3cnc(C#N)c(C(F)(F)F)c3)C(=O)C23CCC3)cc1F [Apalutamide]
  efficacy: -24.3%

## C[C@H](NC1=NC=NC2=C1[NH]C=N2)\C3=N\C4=C(C=C(F)C=C4)C(=O)N3C5=CC=CC=C5 [Acalisib]
  efficacy: -38.2%

## C[C@H](Nc1nc(N[C@H](C)C(F)(F)F)nc(-c2cccc(Cl)n2)n1)C(F)(F)F [AG-881]
  efficacy: -28.1%

## OC(COC1=C2C(=O)\C=C(/OC2=CC=C1)C([O-])=O)COC3=C4C(=O)\C=C(/OC4=CC=C3)C([O-])=O [Sodium cromoglycate]
  efficacy: -6.55%

## O=C1Cc2cc(C(=O)NC3C[C@H]4CC[C@@H](C3)N4[S+](=O)([O-])CC3CCN(CCCC(F)(F)F)CC3)c(Cl)cc2N1 (some centres not stated)
  efficacy: -9.6%

## CC(C)(C)C(=O)Oc1ccc2c(c1)nc(NC(=O)c1cccc([N+](=O)[O-])c1)n2CCCO
  efficacy: -19.1%

## COc1ccc2c(c1)CC[C@@H](CN(C)CC(=O)O)[C@H]2c1ccccc1
  efficacy: -15.5%

## Cc1cc2c(cc1CC(=O)c1sccc1[S+](=O)([O-])Nc1onc(C)c1Cl)OCO2 [Sitaxentan]
  efficacy: -43.1%

## C[C@@H]\1/N=C(/N)NC(=N1)\N(C)C [Imeglimin]
  efficacy: -5.96%

## C#Cc1cccc(Nc2ncnc3cc4c(cc23)OCCOCCOCCO4)c1 [Icotinib hydrochloride]
  efficacy: -36%

## O=C(Nc1ccc2c(c1)CCN(Cc1ncn[nH]1)C2)c1ccccc1-c1ccc(C(F)(F)F)cc1
  efficacy: 17.5%

## CN(C)[C@H]\1[C@@H]2C[C@@H]\3CC4=C(C(=C(NC(=O)CNC(C)(C)C)C=C4N(C)C)O)C(=O)C3=C(O)/[C@@]2(O)C(=O)\C(=C1O)C(N)=O [Tigecycline]
  efficacy: -18.8%

## NC(=O)[C@@H](CC1CC1)[C@@H](CCC(F)(F)F)C(=O)N[C@H]2\N=C(C3=CC=CC=C3)/C4=CC=CC(=C4NC2=O)F
  efficacy: -12.2%
